The source of these data is patent US20230097992A1, “BIVALENT EGF FUSION TOXINS” (The Regents of the University of Colorado, a body corporate, priority 2020, published 2023).

The subject of series [1] is HNSCC Cal27 subcutaneous xenografts. Description: Flank-xenograft solid tumor-bearing NSG mouse model. The format is in vivo, NSG mice. To be noted: Subcutaneous xenograft model; fusion toxin or DT390 50 μg/kg IP, erlotinib 20 mg/kg gavage, once daily for 10 days from day 4. The source says: FIGS. 6A-6D presents the data from in vivo efficacy analysis of the human EGF fusion toxins against subcutaneous xenografts in NSG mice from two animal studies. FIG. 6A depicts the survival curve for NSG mice injected with Cal27 cells. […] FIGS. 6B-D depict tumor volume and weight data from the second study performed with a second cohort of NSG mice. […] Mice were euthanized on day 14 after tumor cell injection, when the first mouse in the DT390 group reached the end point. FIG. 6B: Tumor volumes were measured periodically, and the growth kinetics of the four groups were plotted. FIG. 6B depicts the tumor growth kinetics for a period of 14 days. FIG. 6C presents a bar graph representing the tumor weights at day 14. FIG. 6D depicts images of harvested tumors on day 14. Scale bar: 1 cm. FIGS. 6A-6C: *P<0.05; **P<0.01; ***P<0.001; ****P<0.0001; ns: not significant. The P-values for the survival curves in FIG. 6A were calculated using the Mantel-Cox log-rank test and that for the comparisons in FIGS. 6B and C were calculated using the two-tailed Student t-test (GraphPad Prism 9.0.0).
(§1) HNSCC tumor cells were injected via the following routes: 1) Flank-xenograft solid tumor model: eight million human HNSCC Cal27 tumor cells were subcutaneously injected into the right flank at day 0. The tumor-bearing mice were randomly divided into the four experimental groups when the tumors were palpable at day 3. The tumor volume was measured using digital vernier calipers every 3 days and calculated according to the formula: volume (mm^3)=(length×width×width)/2. 2) Tongue-orthotopic solid tumor model: eight million human HNSCC Cal27 tumor cells in 50 μl DMEM were injected into the tongue at day 0 following isoflurane anesthesia and the tumor-bearing mice were randomly divided into the planned four experimental groups at day 3. 3) Experimental metastasis model: one million human HNSCC Cal27 tumor cells in 200 μl DMEM were intravenously injected at day 0 via tail vein and the tumor-bearing mice were randomly divided into the four experimental groups at day 3.
(§2) Mono-EGF-IT (mEGF-IT), bEGF-IT, or DT390 was intraperitoneally injected (IP) starting at day 4 at 50 μg/kg, once daily for 10 consecutive days. […] The injected animals were observed daily for signs and symptoms of illness and scored at least twice weekly based on the parameters as previously reported (Peraino et al. (2013), J. Immunol. Methods 398-399, 33-43, which is hereby incorporated by reference in its entirety; Wang et al., 2015). The animals were humanely euthanized when the score exceeded the limit or the animal lost more than 15% of its pre-injection body weight. In addition, to assess whether the fusion toxins are toxic to the animals, NSG mice injected with the fusion toxins only were also included as control.
In vivo efficacy of the mEGF-IT and bEGF-IT against HNSCC was assessed using three immunodeficient tumor-bearing NSG mouse models. The first in vivo efficacy model was a flank-xenograft solid tumor-bearing NSG mouse model. Eight million Cal27 tumor cells were injected subcutaneously (SQ) into the right flank at day 0. The EGF fusion toxins were injected intraperitoneally (IP) starting on day 4 at 50 μg/kg daily for 10 consecutive days. […] The reduction of the tumor volumes, weights and sizes (FIGS. 6B-6D) were all consistent with the median survival prolongation.

Series [2] concerns HNSCC Cal27 tongue-orthotopic tumors. Description: Tongue-orthotopic tumor-bearing NSG mouse model. The following applies: Tongue orthotopic model; fusion toxin or DT390 50 μg/kg IP, erlotinib 20 mg/kg gavage, once daily for 10 days from day 4. The format is in vivo, NSG mice. How it is done: FIGS. 7A-7C presents the data from two animal studies of in vivo efficacy analysis of the human EGF fusion toxins against tongue squamous cell carcinomas (SCCs) in NSG mice. FIG. 7A presents the data from in vivo efficacy analysis of the human EGF fusion toxins using human EGFR-positive HNSCC Cal27 tongue-orthotopic tumor-bearing NSG mouse model. Eight million human EGFR-positive HNSCC Cal27 cells were injected into the tongue on day 0. Mice were injected intraperitoneally (IP) with the EGF fusion toxin or DT390 at 50 μg/kg, starting on day 4, once daily for 10 consecutive days. […] The schedule of the fusion toxin and tumor cell injection is pictured in the schematic below the survival curve. The vertical arrows indicate the days on which the tumor cells or the fusion toxins were injected. *P<0.05; **P<0.01; ***P<0.001; ****P<0.0001; ns: not significant.
FIG. 7B presents the data from a further in vivo efficacy analysis of the human EGF fusion toxins. […] The mice were euthanized on day 8 after tumor cell injection when the first mouse in the DT390 group reached the end point. The photograph depicts tongue squamous cell carcinomas (SCCs) (circled by the black dotted lines). Scale bar: 1 cm. FIG. 7C presents the FIG. 7B tumor volume comparison of the treatment groups. *P<0.05; **P<0.01
as §1, §2
To assess the in vivo efficacy of the human EGF fusion toxins to the xenograft tumors in the head and neck area, a tongue-orthotopic tumor-bearing NSG mouse model was used as a second efficacy model. Eight million HNSCC Cal27 cells were injected into the tongue at day 0. The EGF fusion toxins were injected intraperitoneally (IP) starting on day 4 at 50 μg/kg daily for 10 consecutive days. Since the resulting tongue-orthotopic tumors severely affected the animal's eating and drinking, animals were euthanized earlier. Therefore, the median survival prolongation was not as impressive as that observed in the flank-xenograft solid tumor-bearing NSG mouse model. […] To further characterize the effect of the EGF fusion toxins on tumor volume, the orthotopic tongue SCC model study was repeated, and the mice were euthanized 8 days after tumor cell inoculation.

For series [3], the system named is HNSCC Cal27 cells injected intravenously (lung metastases). Description: Experimental lung metastasis NSG mouse model. Format: in vivo, NSG mice. The following applies: for Median survival time: Lung metastasis model, fusion toxin or DT390 50 μg/kg IP, erlotinib 20 mg/kg gavage, once daily for 10 days from day 4. The method, then: FIG. 8A-C presents data from in vivo efficacy analysis of the human EGF fusion toxins using an experimental lung metastasis NSG mouse model. FIG. 8A presents data from a first animal study for survival curve analysis. NSG mice were IV injected with one million human EGFR^+ HNSCC Cal27 cells on day 0. Mice were injected intraperitoneally (IP) with the EGF fusion toxin or DT390 at 50 μg/kg, once daily for 10 consecutive days starting on day 4 after the tumor cell injection. […] The schedule of the fusion toxin and tumor cell injection is pictured in the schematic below the survival curve. The vertical arrows indicate the days on which the tumor cells or the fusion toxins were injected. *P<0.05; **P<0.01; ***P<0.001; ****P<0.0001. The P-values for the survival curves were calculated using the Mantel-Cox log-rank test (GraphPad Prism9.0).
FIGS. 8B and C present data from a second animal study for a pathology analysis. […] The mice were euthanized on day 10 after tumor cell injection when the first mouse in the DT390 group reached the end point. FIG. 8B presents H&E pictures of lung metastases. Metastases are indicated in the upper panels by black arrowheads. Scale bar: 500 μm. The lower panels are higher magnification pictures of the area in black rectangles in the upper panels. […] Error bars indicate standard deviation (SD).
as §1, §2
The third in vivo efficacy model was an experimental metastasis model. One million of HNSCC Cal27 tumor cells were intravenously injected via the tail vein of NSG mice at day 0. The EGF fusion toxins were injected intraperitoneally (IP) starting on day 4 at 50 μg/kg daily for 10 consecutive days. […] To further assess the effects of the fusion toxins on metastasis, the experimental metastasis study was repeated with a second cohort of NSG mice, and all mice were euthanized 10 days after tumor cell inoculation, when the first mouse in the DT390 group reached the end point. The data are depicted in FIGS. 8B and C.

Series [4] has as its system 14 EGFR+ HNSCC cells lines. Put plainly: Flow cytometry binding, all 14 EGFR+ HNSCC cell lines together. The arrangement: species or system human. The following applies: mean over the 14 EGFR+ HNSCC cell lines.
The next series deals with NSG mice. Description: In vivo off-target toxicity in NSG mice.
Text: FIGS. 12A-C presents representative images of necropsy results for NSG mice treated with mono-EGF-IT or bi-EGF-IT without tumor cell injection. Mice were euthanized on day 13 after the first injection of the fusion toxins. The images show representative gross changes observed in the ear (FIG. 12A), liver (FIG. 12C) and gastrointestinal tract of a representative NSG mouse treated with mono-EGF-IT compared to a representative NSG mouse treated with bi-EGF-IT.
as §2
The main side effects of targeting EGFR are caused by off-target effects, because EGFR is expressed in many healthy tissues, include skin, liver, and gastrointestinal tract (Widakowich et al., (2007), Oncologist, 12, 1443-1455). […] To further assess these toxic effects, another in vivo toxicity study in non-tumor-bearing mice was performed. NSG mice were treated with mono-EGF-IT or bi-EGF-IT, without tumor cell injection.

The mark [5] stands for this setting: non-tumor-bearing NSG mice, 13 days after the first injection.

Where “and” joins values, the source holds several entries; their conditions need not be identical. Equal values may be shown once.

On to DT390, for which the Median survival time in series [1] is 14 days and 13 days; in series [2] it was 10 days; in series [3] it was 8.5 days.

Take “Mono-EGF IT: DT390 joined by G4S to one human EGF domain, C-terminal 6×His tag; SEQ ID NO: 15”: in series [4], binding was put at a Kd of 12.2 nM. Also, the Median survival time in series [1] was determined as 14 days; in series [2], 11 days; in series [3], 32 days. The “number of metastases in the lungs” value in series [3] (second cohort, euthanized 10 days after tumor cell inoculation) is on record as “reduced compared with the DT390-negative control group”. In addition, the “adverse effects observed in treated mice” value in the series with NSG mice (mice of the efficacy studies) is “generally unhealthy and lethargic and developed skin rashes”. In the series on NSG mice (non-tumor-bearing NSG mice), the “general condition and skin” value was “generally unhealthy and lethargic with skin rashes”. For the same substance, the “necropsy, gastrointestinal tract” value in the series with NSG mice (setting [5]) is recorded as “mildly pale with scant ingesta in the stomach or cecum”. For the same substance, the “necropsy, liver” value in the series on NSG mice (setting [5]) was “diffuse pale livers with moderate reticular patterns”.
